Measurements: patent US20260262643A1, “HERBICIDAL BENZOXAZINES” (FMC CORPORATION, priority 2022, published 2026)

How the values were obtained:
oat, wild [1] = experiment: Test C postemergence; assay type: in vivo, Avena fatua; conditions: 10 days, 0 to 100 scale (0 no effect, 100 complete control)
How it was run: (§1)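 Test material, in non-phytotoxic solvent with surfactant, was sprayed on the soil directly after seeding (preemergence) or on young plants of 2–10 cm with one to two leaves (postemergence). Greenhouse, 10 days; 0–100 visual control scale.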

barnyardgrass [2] = experiment: Test C preemergence; assay type: in vivo, Echinochloa crusgalli
How it was run: as §1

foxtail, giant [3] = experiment: Test C preemergence; assay type: in vivo, Setaria faberi
How it was run: as §1

oat, wild [4] = experiment: Test C preemergence; assay type: in vivo, Avena fatua
How it was run: as §1

soybean [5] = experiment: Test C postemergence; assay type: in vivo, Glycine max; conditions: 10 days, 0 to 100 scale (0 no effect, 100 complete control)
How it was run: as §1

ducksalad = experiment: Test D flooded paddy test; assay type: in vivo, Heteranthera limosa; conditions: 250 g ai/ha, applied to paddy water, visual rating after 13 to 14 days, scale 0 to 100 (0 no effect, 100 complete control)
How it was run: (§2)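 Visual ratings from 0, meaning no effect, to 100, meaning complete control, were assigned against untreated controls 13 to 14 days after compounds were added to the floodwater of pots kept 3 cm deep, with plants at the 2-leaf stage.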

ragweed [6] = experiment: Test C postemergence; assay type: in vivo, Ambrosia artemisiifolia; conditions: 10 days, 0 to 100 scale (0 no effect, 100 complete control)
How it was run: as §1

wheat [7] = experiment: Test C postemergence; assay type: in vivo, Triticum aestivum; conditions: 10 days, 0 to 100 scale (0 no effect, 100 complete control)
How it was run: as §1

pigweed, palmer [8] = experiment: Test C postemergence; assay type: in vivo, Amaranthus palmeri; conditions: 10 days, 0 to 100 scale (0 no effect, 100 complete control)
How it was run: as §1

kochia [9] = experiment: Test C preemergence; assay type: in vivo, Bassia scoparia
How it was run: as §1

blackgrass [10] = experiment: Test C preemergence; assay type: in vivo, Alopecurus myosuroides
How it was run: as §1

pigweed, palmer [11] = experiment: Test C preemergence; assay type: in vivo, Amaranthus palmeri
How it was run: as §1

rice = experiment: Test D flooded paddy test; assay type: in vivo, Oryza sativa; conditions: 250 g ai/ha, applied to paddy water, visual rating after 13 to 14 days, scale 0 to 100 (0 no effect, 100 complete control)
How it was run: as §2

blackgrass [12] = experiment: Test C postemergence; assay type: in vivo, Alopecurus myosuroides; conditions: 10 days, 0 to 100 scale (0 no effect, 100 complete control)
How it was run: as §1

ragweed [13] = experiment: Test C preemergence; assay type: in vivo, Ambrosia artemisiifolia
How it was run: as §1

soybean [14] = experiment: Test C preemergence; assay type: in vivo, Glycine max
How it was run: as §1

ryegrass, Italian [15] = experiment: Test C preemergence; assay type: in vivo, Lolium multiflorum
How it was run: as §1

corn [16] = experiment: Test C preemergence; assay type: in vivo, Zea mays
How it was run: as §1

barnyardgrass [17] = experiment: Test D flooded paddy test; assay type: in vivo, Echinochloa crus-galli; conditions: 250 g ai/ha, applied to paddy water, visual rating after 13 to 14 days, scale 0 to 100 (0 no effect, 100 complete control)
How it was run: as §2

kochia [18] = experiment: Test C postemergence; assay type: in vivo, Bassia scoparia; conditions: 10 days, 0 to 100 scale (0 no effect, 100 complete control)
How it was run: as §1

barnyardgrass [19] = experiment: Test C postemergence; assay type: in vivo, Echinochloa crusgalli; conditions: 10 days, 0 to 100 scale (0 no effect, 100 complete control)
How it was run: as §1

horseweed = experiment: Test C postemergence; assay type: in vivo, Erigeron canadensis; conditions: 10 days, 0 to 100 scale (0 no effect, 100 complete control)
How it was run: as §1

foxtail, giant [20] = experiment: Test C postemergence; assay type: in vivo, Setaria faberi; conditions: 10 days, 0 to 100 scale (0 no effect, 100 complete control)
How it was run: as §1

sedge, umbrella = experiment: Test D flooded paddy test; assay type: in vivo, Cyperus difformis; conditions: 250 g ai/ha, applied to paddy water, visual rating after 13 to 14 days, scale 0 to 100 (0 no effect, 100 complete control)
How it was run: as §2

corn [21] = experiment: Test C postemergence; assay type: in vivo, Zea mays; conditions: 10 days, 0 to 100 scale (0 no effect, 100 complete control)
How it was run: as §1

ryegrass, Italian [22] = experiment: Test C postemergence; assay type: in vivo, Lolium multiflorum; conditions: 10 days, 0 to 100 scale (0 no effect, 100 complete control)
How it was run: as §1

galium = experiment: Test C postemergence; assay type: in vivo, Galium aparine; conditions: 10 days, 0 to 100 scale (0 no effect, 100 complete control)
How it was run: as §1

wheat [23] = experiment: Test C preemergence; assay type: in vivo, Triticum aestivum
How it was run: as §1

[24] = 500 g ai/ha, preemergence, 0 to 100 scale (0 no effect, 100 complete control)
[25] = Preemergence, 125 g ai/ha, 0 to 100 scale, 0 no effect, 100 complete control

Cc1cccc2c1OC(C(F)(F)F)CN2C(=O)c1ccnc(-n2cnc(C(C)C)n2)c1 (stereo not shown) [Compound 327]
60: Plant response rating, Horseweed (horseweed; 500 g ai/ha, postemergence) | Plant response rating, Foxtail, Giant (foxtail, giant [20]; Postemergence, 125 g ai/ha)
20: Plant response rating, Oat, Wild (oat, wild [4]; [25]) | Plant response rating, Wheat (wheat [7]; Postemergence, 125 g ai/ha) | Plant response rating, Kochia (kochia [9]; [25]) | Plant response rating, Corn (corn [16]; [25])
15: Plant response rating, Barnyardgrass (Flood) (barnyardgrass [17])
30: Plant response rating, Ragweed (ragweed [6]; Postemergence, 125 g ai/ha) | Plant response rating, Wheat (wheat [7]; 500 g ai/ha, postemergence) | Plant response rating, Pigweed, Palmer (pigweed, palmer [8]; Postemergence, 125 g ai/ha) | Plant response rating, Blackgrass (blackgrass [12]; Postemergence, 125 g ai/ha) | Ragweed plant response rating (ragweed [13]; [24])
40: Plant response rating, Oat, Wild (oat, wild [1]; Postemergence, 125 g ai/ha) | Plant response rating, Ragweed (ragweed [6]; 500 g ai/ha, postemergence) | Plant response rating, Kochia (kochia [18]; Postemergence, 125 g ai/ha) | Plant response rating, Barnyardgrass (barnyardgrass [19]; Postemergence, 125 g ai/ha) | Plant response rating, Ryegrass, Italian (ryegrass, Italian [22]; Postemergence, 125 g ai/ha) | Plant response rating, Wheat (wheat [23]; [25])
80: Plant response rating, Ryegrass, Italian (ryegrass, Italian [22]; 500 g ai/ha, postemergence)
0: Plant response rating, Rice (Flood) (rice) | Plant response rating, Ragweed (ragweed [13]; [25]) | Plant response rating, Horseweed (horseweed; Postemergence, 125 g ai/ha)
25: Plant response rating, Ducksalad (Flood) (ducksalad)
100: Foxtail, Giant plant response rating (foxtail, giant [3]; [24]) | Plant response rating, Foxtail, Giant (foxtail, giant [3]; [25]) | Plant response rating, Soybean (soybean [5]; 500 g ai/ha, postemergence) | Plant response rating, Soybean (soybean [5]; Postemergence, 125 g ai/ha) | Soybean plant response rating (soybean [14]; [24]) | Plant response rating, Soybean (soybean [14]; [25]) | Ryegrass, Italian plant response rating (ryegrass, Italian [15]; [24]) | Plant response rating, Galium (galium; 500 g ai/ha, postemergence)
50: Plant response rating, Barnyardgrass (barnyardgrass [2]; [25]) | Plant response rating, Pigweed, Palmer (pigweed, palmer [8]; 500 g ai/ha, postemergence) | Plant response rating, Pigweed, Palmer (pigweed, palmer [11]; [25])
90: Plant response rating, Oat, Wild (oat, wild [1]; 500 g ai/ha, postemergence) | Barnyardgrass plant response rating (barnyardgrass [2]; [24]) | Kochia plant response rating (kochia [9]; [24]) | Blackgrass plant response rating (blackgrass [10]; [24]) | Plant response rating, Blackgrass (blackgrass [10]; [25]) | Pigweed, Palmer plant response rating (pigweed, palmer [11]; [24]) | Plant response rating, Blackgrass (blackgrass [12]; 500 g ai/ha, postemergence) | Plant response rating, Ryegrass, Italian (ryegrass, Italian [15]; [25]) | Plant response rating, Kochia (kochia [18]; 500 g ai/ha, postemergence) | Plant response rating, Barnyardgrass (barnyardgrass [19]; 500 g ai/ha, postemergence) | Plant response rating, Foxtail, Giant (foxtail, giant [20]; 500 g ai/ha, postemergence) | Plant response rating, Corn (corn [21]; 500 g ai/ha, postemergence) | Wheat plant response rating (wheat [23]; [24])
70: Oat, Wild plant response rating (oat, wild [4]; [24]) | Corn plant response rating (corn [16]; [24]) | Plant response rating, Sedge, Umbrella (Flood) (sedge, umbrella) | Plant response rating, Corn (corn [21]; Postemergence, 125 g ai/ha) | Plant response rating, Galium (galium; Postemergence, 125 g ai/ha)
